We go through two compounds from patent US20190111154A1, “TREATMENT OF NEUROPATHY WITH DNA CONSTRUCT EXPRESSING HGF ISOFORMS WITH REDUCED INTERFERENCE FROM GABAPENTINOIDS” (ViroMed Co., Ltd., priority 2017, published 2019).

The nature of data set [1]: Von Frey filament test in chronic constriction injury (CCI) mice, Example 1. Type of data set: in vivo. The conditions noted are these: for paw withdrawal frequency: day 14-16. Here is the method: FIG. 2 illustrates the experimental procedure for testing effects of gabapentin on VM202-mediated pain reduction using chronic constriction injury (CCI) mice. Surgical procedure on sciatic nerve (CCI or sham) was performed and a plasmid (pCK or VM202) was administered to 5-week-old male mice on day 0, gabapentin or PBS was injected daily to the mice from day 1 to day 15, and their pain levels were measured by von Frey filament test starting on day 14 through 16.
In order to explore the mechanisms behind the gabapentinoid interference with VM202 efficacy, we tested effects of gabapentin on VM202-mediated pain reduction in chronic constriction injury (CCI) mice as presented in FIG. 2. CCI is an animal model widely used for studying neuropathic pain. Specifically, chronic constriction injury (CCI) was introduced by applying loosely constrictive ligatures to the sciatic nerve of 5 week-old male mice. The CCI mice were divided into three groups—in the first group, 200 μg of pCK vector was administered into the cranial thigh muscles as a negative control for VM202 administration (pCK is the vector used in VM202, but lacks the HGF vector payload), in the second group, 200 μg of VM202 was administered into the cranial thigh muscles, and in the third group, no DNA construct was administered. Animals in each of the first and the second group were further divided into two subgroups, with the first subgroup injected daily with 100 mg/kg of gabapentin and the second subgroup injected daily with PBS as a negative control for gabapentin administration, via intraperitoneal cavity for two weeks. The sham group without CCI was also maintained and daily injected with PBS. From day 14 to day 16, Von Frey filament test was performed to assess the level of neuropathic pain (mechanical allodynia).

Data set [2] can be described thus: Nerve pinch test in nerve crush mouse model. Type of data set: in vivo, mice. To be noted: day 7. Here is the method:
FIG. 5 illustrates the experimental procedure for testing gabapentin effects on VM202-mediated nerve regeneration in a nerve crush mouse model. Nerve crush was induced and VM202 administered to 9-week old male C57BL/6 mice on day 1, gabapentin was injected daily from day 2 to day 6, and nerve pinch test was conducted on day 7.
Effects of gabapentinoids on VM202-mediated nerve regeneration were tested in a nerve crush animal model. The protocol is schematized in FIG. 5. Specifically, nerve crush was introduced to 9-week-old C57BL/6 mice by giving brief pressure to their sciatic nerve. On the same day (day 1), the mice were injected with 200 μg of VM202 to the cranial thigh muscles right after the nerve crush. From the next day (day 2), 100 mg/kg gabapentin was administered daily.
On day 7, a nerve pinch test was performed to quantify functional recovery of the injured nerve. For the nerve pinch test, light anesthesia was induced and sciatic nerve was exposed. The injured nerve was pinched from its distal to proximal direction until a reflex response was observed. The distance was then measured between the injury site and the foremost site that produced the response. The distance measured by this method represents the length of regenerated nerves, which is provided on the y-axis in FIG. 6.

A further data set has as its system c-Jun. In words: Western blot of c-Jun in dorsal root ganglion (DRG) cells of nerve crush mice. The format is in vivo, mouse. The text has this:
Expressions of c-Jun (top) and GAPDH (bottom) were detected by antibodies specific to each protein. FIG. 7B provides relative levels of c-Jun expression in each sample, calculated by measuring band intensity of c-Jun and comparing the intensity with the band intensity of GAPDH.
c-Jun is well established to be a key factor involved in nerve regeneration, and has been used as a marker for that process. Expression of c-Jun protein prepared from dorsal root ganglion (DRG) cells obtained from a sham mouse (“Sham”) or from a nerve crush mouse (“Crush”) was measured by Western blot assay, using an antibody against c-Jun. […] VM202 treatment further increased c-Jun expression level by 1.3-fold (compare lanes 2 and 3 of FIG. 7A), but such induction was not observed when mice were exposed to gabapentin (compare lanes 5 and 6 of FIG. 7A). The western blot assay results were quantified based on the band intensities and presented in FIG. 7B for their analysis and comparison.

Data set [3] is described as follows: Von Frey filament test in CCI mice, gabapentin at different time points, Example 4. The format is in vivo. Here is the method: The effects of gabepentinoid administration at different time points relative to VM202 administration were tested in chronic constriction injury (CCI) mice.
After CCI surgery, the development of mechanical allodynia was assessed using a Von Frey's filament test once a week, and the level of pain reduction fold was calculated based on the mechanical frequency evaluation. Briefly, animals were placed individually in a cylinder on top of a metal mesh floor for adaptation. To examine the frequency of mechanical sensitivity, mice were assessed by stimulating the hind paw using constant thickness of the filament (0.16 g).
To further understand the delay required to prevent the interference, in a further experiment, CCI mice injected with VM202 were treated with gabapentin after delays for various periods ranging from 0 to 14 days. CCI mice were injected with VM202 or pCK on day 0. The CCI mice were treated with no gabapentin (CONT1, CONT2) or additionally treated with gabapentin starting on day 0 (on the day of VM202 injection, GP1) or day 3 (GP2), day 7 (GP3) or day 10 (GP4) after VM202 injection.
Two weeks after CCI surgery and VM202 or pCK injection, the development of mechanical allodynia was assessed using a Von Frey's filament test, and the level of pain reduction fold was calculated based on the mechanical frequency evaluation for each animal.

For data set [4] the following is noted: cited from earlier work.
The mark [5] stands for this setting: CCI mice given pCK and daily 100 mg/kg gabapentin i.p.

As to `NCC1(CC(=O)O)CCCCC1` [gabapentin], in data set [1] (setting [5]), the “duration of pain relieving effects” value is “about 6 hours” and the “pain level (paw withdrawal frequency)” value was “decreases in pain levels immediately after the gabapentin administration”.
Turning to “VM202: plasmid DNA, HGF-X7 cloned into the pCK vector (SEQ ID NO: 11), expresses flHGF and dHGF; KCCM-10361”, the “pain level (paw withdrawal frequency)” value in data set [1] (CCI mice, 200 μg VM202, no gabapentin, throughout the experimental period) is recorded as “significantly lower pain levels”. The paw withdrawal frequency in data set [1] (CCI mice, 200 μg VM202 i.m. plus daily 100 mg/kg gabapentin i.p.) is listed as 46.1%; in data set [1] (CCI mice, 200 μg VM202 i.m., no gabapentin) it was 30.56%. The “time over which pain level increased close to the pCK-PBS level after gabapentin injection” value in data set [1] (VM202-treated CCI mice, daily 100 mg/kg gabapentin) is on record as “about 10 hours”. The “compromise of the pain reduction effect of VM202 by gabapentin” value in data set [1] (daily 100 mg/kg gabapentin i.p.) was “more than 50%”. For the same compound, the “length of regenerated nerve” value in data set [2] (200 μg VM202, daily 100 mg/kg gabapentin) was 1.95±0.3 mm; in data set [2] (200 μg VM202, daily PBS), “about 4±0.2 mm”. Also, in data set [2] (daily PBS), the “length of regenerated nerve, fold versus pCK control” value is “approximately 2.7 fold”. The “increase of nerve regeneration, fold versus pCK control group” value in data set [2] (in the presence of daily gabapentin) is on record as 2.3 fold. Moreover, the “increase of c-Jun expression level versus nerve crush mice given pCK” value in the data set on c-Jun (daily PBS (lanes 2 and 3)) is listed as 1.3 fold. For the same compound, in the data set on c-Jun (mice exposed to gabapentin (lanes 5 and 6)), the “induction of c-Jun expression versus nerve crush mice given pCK” value was “not observed”. For the same compound, the “pain level versus CCI-pCK” value was “no effects” in data set [3] (CCI-VM202-Gaba1: gabapentin from day 0 to day 14) and “significantly reduced the pain level” in data set [3] (CCI-VM202: 200 μg/head VM202 day 0, no gabapentin). In addition, the “pain level from day 14 to 28, after gabapentin stopped” value in data set [3] (CCI-VM202-Gaba1: gabapentin from day 0 to day 14, none afterwards) is recorded as “continued to have high level of pains”. Also, in data set [3] (CCI-VM202-Gaba2: gabapentin from day 15 to day 28), the pain relieving effects result was “significant and maintained”. Besides, the “pain reducing effect two weeks after CCI surgery” value in data set [3] (CONT2: no gabapentin) was “significant pain relief”; in data set [3] (GP1: 100 mg/kg gabapentin started day 0) it was “did not have significant pain reducing effects”; in data set [3] (GP2: 100 mg/kg gabapentin started day 3), “did not have significant pain reducing effects”; in data set [3] (GP3: 100 mg/kg gabapentin started day 7), “did not have significant pain reducing effects”; in data set [3] (GP4: 100 mg/kg gabapentin started day 10) it was “significant pain relief”. In addition, in data set [4] (injections into the calf muscle, two days of treatment spaced two weeks apart), the “pain in patients with diabetic peripheral neuropathy” value is reported as “significantly reduce pain”. The “reduction in pain from baseline, patients not on Lyrica and/or Neurontin versus total patient group” value in data set [4] (low dose of VM202 (total 16 mg), 3, 6, 9 months) was “larger reduction in pain”. Besides, the “pain relief in patients not taking pregabalin or gabapentin versus patients taking a gabapentinoid” value in data set [4] (post hoc analysis of phase II data) was “more effective in relieving pain in patients not taking pregabalin or gabapentin”. Besides, the “duration of symptomatic relief with improvement in quality of life” value in data set [4] (two days of treatment, spaced two weeks apart) is on record as 3 months.
